Target: T1, porcine ficolin 2 (FCN2) (Sus scrofa, UniProt Q29041)
T1 sequence (Q29041 27-323): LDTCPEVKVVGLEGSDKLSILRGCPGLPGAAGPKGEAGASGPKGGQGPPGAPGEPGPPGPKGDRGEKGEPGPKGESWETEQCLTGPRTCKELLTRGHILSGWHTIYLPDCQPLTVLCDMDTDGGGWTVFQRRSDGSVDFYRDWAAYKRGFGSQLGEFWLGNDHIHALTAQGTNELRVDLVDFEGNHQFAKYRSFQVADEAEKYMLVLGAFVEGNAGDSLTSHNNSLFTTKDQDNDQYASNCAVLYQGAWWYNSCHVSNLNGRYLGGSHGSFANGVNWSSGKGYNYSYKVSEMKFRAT
Type: biochemical
Settings: 60% (v/v) pig serum, 37 °C, 20 min; PMOXA-coated NPs; S2 site, competitive

IC50: 67 mM
SMILES: CC(=O)N[C@H]1C(O)O[C@H](CO)[C@@H](O)[C@@H]1O (stereo partly shown) [GlcNAc]
